Measurements from PubChem BioAssay AID489032 (Sanford-Burnham Center for Chemical Genomics, 2010).
Active and inactive are the calls of the source. How the calls were made is not given here.

system: UPR adaptive arm reporter cells, luciferase luminescence; test: activators of adaptive UPR signalling, dose response, cell-based, luciferase luminescence (AID 489032)

Structure (SMILES)	EC50
COc1ccc(-c2c/c(=N\c3nc(-c4ccccc4)c(C)s3)c3ccccc3o2)cc1O	> 80 µM (inactive)
COc1ccc(-c2cc(=O)oc3c(C)c(OC(=O)c4cccs4)ccc23)cc1	> 80 µM (inactive)
COc1cc(SC#N)ccc1N=Cc1c(C)[nH]n(-c2ccc(Cl)cc2)c1=O	> 80 µM (inactive)
CCc1ccc(-n2c(SCC(=O)c3ccc4c(c3)NC(=O)CO4)nc3ccccc3c2=O)cc1	> 80 µM (inactive)
CN(C)c1ccc(/C=N/NC(=O)c2ccc(NC(=O)c3ccccc3)cc2)cc1	> 80 µM (inactive)
Brc1ccc(-c2ccc(/C=N/Nc3nncc(-c4ccccc4)n3)o2)cc1	77.6 µM (inactive)
CCc1cc2c(=O)c(-c3cnn(-c4ccccc4)c3)c(C)oc2cc1OCC(=O)Nc1cccc(C)c1	> 80 µM (inactive)
COc1ccc(Cc2nnc(N/N=C/c3ccc(N(C)C)cc3)[nH]c2=O)cc1OC	25.5 µM (inactive)
Cc1ccc(-n2nc3c(N4CCC(C(=O)NCCc5ccccc5C)CC4)nnc(C)c3c2C)cc1	> 80 µM (inactive)
Oc1ccc(/C=N/Nc2ncnc3c2ncn3Cc2ccccc2)cc1O	11 µM
COc1cccc(-n2c(SCC(=O)N3CCc4ccccc43)nnc2-c2c[nH]c3ccccc23)c1	> 80 µM (inactive)
NCCOc1ccc(C23CC4CC(CC(C4)C2)C3)cc1	> 80 µM (inactive)
COc1ccc(CNC(=O)/C(C#N)=C/c2cccc(OC)c2OC)cc1	73 µM (inactive)
CC1CCC(C(C)C)C(OC(=O)Cn2c(-c3ccc(Cl)cc3)[n+](C)c3ccccc32)C1 (stereo unspecified)	> 80 µM (inactive)
COc1ccc(-c2cc(-c3ccccc3)c(C#N)c(S(C)(=O)=O)n2)cc1	4.88 µM
COc1ccc(-c2csc(NC(=S)NC(=O)/C=C/c3ccco3)n2)cc1Br	41.9 µM (inactive)
CCCCOc1ccccc1NC(=O)Cn1c(-c2nonc2N)nc2ccccc21	22 µM (inactive)
CCCCC1CCC(C(=O)N(CC(C)C)c2c(N)n(CCCC)c(=O)[nH]c2=O)CC1 (stereo unspecified)	> 80 µM (inactive)
C#CCOCCOCCOCCNc1nc(N2CCN(C(=O)CCCCCCCCCCNC(=O)[C@H](CCCCN)n3cc(C[C@@H](C)CC)nn3)CC2)nc(N2CCN(C(=O)CCCCCCCCCCNC(=O)[C@H](CCCN=C(N)N)n3cc(C[C@@H](C)CC)nn3)CC2)n1	> 80 µM (inactive)
Cc1nn(Cc2c(Cl)cccc2Cl)c(C)c1NC(=O)c1cn(-c2ccccc2)nc1-c1ccccc1	> 80 µM (inactive)
CCc1ccc(-c2nc(CN3CCC(C(=O)NCCN(CC)c4ccccc4)CC3)c(C)o2)cc1	> 80 µM (inactive)
COc1ccc(-c2nn(-c3ccccc3)cc2/C=N/N2C(=O)CSC2=S)cc1	> 80 µM (inactive)
COc1cc(/C=C2\CC(C(C)(C)C)C/C(=C\c3cc(OC)c(OC)c(OC)c3)C2=O)cc(OC)c1OC (stereo unspecified)	39.3 µM (inactive)
C[C@@H]1C[C@H]2[C@@H]3CCC4=CC(=O)C=C[C@]4(C)[C@@]3(Cl)[C@@H](O)C[C@]2(C)[C@@]1(OC(=O)c1ccco1)C(=O)CCl	> 80 µM (inactive)
CCOC(=O)C1=C(O)/C(=C/c2cn(CC(=O)NCC3CCCO3)c3ccccc23)SC1=Nc1ccc(C)cc1 (stereo unspecified)	> 80 µM (inactive)

Structure (SMILES)	EC50
C=CCN=C1S/C(=C/c2cccc([N+](=O)[O-])c2)C(=O)N1CC=C	> 80 µM (inactive)
CC(=O)Oc1ccc(-c2ccc(C(=O)OCC(=O)N(C)CC(=O)Nc3ccccc3Cl)cc2)cc1	2.46 µM
CCC/C(=N/Nc1ccc(Cl)cc1)c1cnnc(-c2ccccc2)n1	> 80 µM (inactive)
Oc1ccc(CN2CCC(Cc3ccccc3)CC2)c2cccnc12	> 80 µM (inactive)
CC(C)(C)C(=O)NC(=S)NNC(=O)C(c1ccccc1)c1ccccc1	27 µM (inactive)
COc1cc(/C=N/Nc2nc(Nc3ccc(C)cc3)nc(-n3nc(C)cc3C)n2)cc(OC)c1OC	19.7 µM
CCOC(=O)/C(=C\c1ccccc1)C(=O)c1cc(C(C)=O)c(Nc2ccccc2)s1	> 80 µM (inactive)
CCCCN1C(=O)/C(=C2/Sc3ccc(OC)cc3N2CC)SC1=S	> 80 µM (inactive)
CCc1cccc(CC)c1NC(=O)/C(C#N)=C/c1ccccc1C(F)(F)F	> 80 µM (inactive)
Oc1cccc2ccc(/C=C/c3ccc(Br)s3)nc12	> 80 µM (inactive)
CCC[C@@H](CN[C@@H](CNC)[C@H](C)CC)NCC1CCC(C(C)(C)C)CC1 (stereo partly specified)	> 80 µM (inactive)
CCc1nn(-c2cc(Oc3cccc4ccccc34)nc(-c3ccccc3)n2)c(N)c1C#N	49.2 µM (inactive)
O=C(Nc1ccc([N+](=O)[O-])cc1)C(Cc1ccccc1)N1C(=O)c2cccc3cccc(c23)C1=O (stereo unspecified)	27 µM (inactive)
CCCCCn1c(N)c(-c2nc3ccccc3o2)c2c([N+](=O)[O-])nn(CC)c(=O)c21	> 80 µM (inactive)
CN(C)CC(CCC(CN(C)C)C(O)(c1ccccc1)c1ccccc1)C(O)(c1ccccc1)c1ccccc1 (stereo unspecified)	> 80 µM (inactive)
CCOc1ccccc1N=Cc1c(O)c2ccccc2oc1=O	11.6 µM
CC(C)=CCCC1(C)C=Cc2c(ccc3c2[nH]c2cc(O)c(C)cc23)O1 (stereo unspecified)	> 80 µM (inactive)
OC(CNCC1CCCO1)Cn1c2ccc(Br)cc2c2cc(Br)ccc21 (stereo unspecified)	> 80 µM (inactive)
COc1ccc(-c2nn(-c3ccccc3)cc2/C=C/C(=O)OCC(=O)Nc2cccc(C#N)c2)cc1	11.9 µM
COc1ccc(-c2sc3ccccc3c2-c2ccc(OCCN(C)C)cc2)cc1	> 80 µM (inactive)
CC1=CC(C)[C@H](/C=N/n2c(=O)[nH]c3c([nH]c4ccc(Br)cc43)c2=O)C(C)C1 (stereo partly specified)	> 80 µM (inactive)
O=c1[nH]c(CSc2ncnc3sc(-c4ccccc4)cc23)nc2ccccc12	> 80 µM (inactive)
O=C(C[C@@H]1C/C=C/CC[C@H](Cc2ccc(F)cc2)C(=O)OC[C@@H](Cc2ccccc2)NC1=O)N[C@H](CO)Cc1ccccc1	18.8 µM
O=C(NC(=S)Nc1ccc(NC(=O)c2cccs2)cc1)c1cc2ccccc2o1	> 80 µM (inactive)

Other lines, results leading:

EC50	Structure (SMILES)
15.1 µM	N#C/C(=C\Nc1ccc2cn[nH]c2c1)c1nc(-c2ccc(Cl)cc2)cs1
> 80 µM (inactive)	CCCCN(CC)S(=O)(=O)c1ccc(C(=O)N(CCCN(C)C)c2nc3cc(C)cc(C)c3s2)cc1
> 80 µM (inactive)	COc1ccc(-c2nnc(SCC(=O)Nc3sc4c(c3C#N)CCCC4)n2-c2ccccc2)cc1
> 80 µM (inactive)	COc1ccc(Nc2nc(N)c([N+](=O)[O-])c(NC3CCCCC3)n2)cc1
> 80 µM (inactive)	Cc1cc(N2CCN(c3nc(-c4ccc([N+](=O)[O-])cc4)cs3)CC2)c2ccccc2n1
> 80 µM (inactive)	CCCCCC(=O)Nc1ccc(C(=O)N/N=C/c2ccc([N+](=O)[O-])cc2)cc1
> 80 µM (inactive)	COc1ccc(N2CCN(Cc3cc(=O)oc4cc(-c5ccccc5)c(O)cc34)CC2)cc1
> 80 µM (inactive)	O=C(/C=C/c1cc([N+](=O)[O-])ccc1OC(F)F)Nc1cccc([N+](=O)[O-])c1
> 80 µM (inactive)	CC(C)CC(NC(=O)c1ccc(Cl)cc1)C(=O)OCC(=O)c1ccc2c(c1)NC(=O)CO2 (stereo unspecified)
> 80 µM (inactive)	O=C(Nc1nc2ccc(Cl)cc2s1)c1ccc(N2CCCCC2)c([N+](=O)[O-])c1
> 80 µM (inactive)	C#CCn1c(=NC(=O)c2ccc(Cl)s2)sc2cccc(OC)c21
23.9 µM (inactive)	Cc1sc(NC(=O)c2cc(-c3ccc(Cl)cc3)nc3ccccc23)c(C(N)=O)c1C
> 80 µM (inactive)	CCOC(=O)c1nnc(-c2ccccc2)nc1Oc1ccc(Cl)cc1
58.6 µM (inactive)	Cc1ccc(CN2C(=O)C(=O)c3cc(C)ccc32)cc1
> 80 µM (inactive)	CCN(CC)CCn1c(SCC(=O)Nc2ccc(F)cc2)nc2c(sc3ccccc32)c1=O
> 80 µM (inactive)	COc1ccc(CCn2c(C3CCCCC3)nc3c(c(=O)c4ccccc4n3C)c2=O)cc1
> 80 µM (inactive)	O=C(COC(=O)c1ccc2[nH]c3c(c2c1)CCCC3)Nc1ccccc1Cl
> 80 µM (inactive)	COc1ccccc1C(=O)NC(=S)NNC(=O)c1sc2ccccc2c1Cl
4.24 µM	CCc1ccc(-c2cc(C(F)(F)F)n3nc(C(=O)Nc4cnn(Cc5ccc(C)cc5)c4)cc3n2)s1

EC50	Structure (SMILES)
> 80 µM (inactive)	CCC1CCc2c(sc3nc(SCC(=O)NCc4ccco4)n(-c4ccccc4)c(=O)c23)C1 (stereo unspecified)
> 80 µM (inactive)	O=C(C[n+]1ccc(-c2cc(C(=O)Nc3cccc(C(F)(F)F)c3)c3ccccc3n2)cc1)c1cccc([N+](=O)[O-])c1
> 80 µM (inactive)	Cc1ccc(CNC(=O)c2ccc3c(=O)n4c(-c5ccc(C)cc5)csc4nc3c2)cc1
54.1 µM (inactive)	CCOC(=O)/C=c1\s/c(=C\c2ccc3cc(OC)ccc3c2)c(=O)n1CC(=O)NCC1CCCO1 (stereo unspecified)
> 80 µM (inactive)	CC1CCCCC1N1CN=C(Nc2nc3ccccc3s2)NC1 (stereo unspecified)
> 80 µM (inactive)	FC(F)(F)c1nnc2c(Sc3ccccc3)nc3ccc(Cl)cc3n12
> 80 µM (inactive)	N#Cc1cnn2c1nc(N1CCCCC1)c1ccccc12
> 80 µM (inactive)	N#Cc1cc2c(nc1SCC(=O)Nc1sc3c(c1C#N)CCC3)CCCC2
> 80 µM (inactive)	Cc1cc(C)nc(SCc2ccc(C(=O)N/N=C/c3cccc(O)c3O)cc2)n1
> 80 µM (inactive)	O=C(COc1ccc(Cl)cc1Cl)NN=C1c2ccccc2-c2ccccc21
> 80 µM (inactive)	OCCCn1c(C2CCCN2c2nc(-c3ccc(Cl)cc3)cs2)nc2cc(Cl)c(N3CCCCC3)cc21 (stereo unspecified)
> 80 µM (inactive)	COc1ccc(OC)c(NC(=O)c2oc3ccccc3c2NC(=O)C2CC2)c1
10.1 µM	O=C(NC(=S)Nc1cc(-c2nc3ccccc3[nH]2)ccc1Cl)c1ccc2c(c1)OCO2
13.5 µM	COCc1cc(C)nc(OCC(=O)N/N=C/c2ccc(-c3cc([N+](=O)[O-])ccc3Cl)o2)c1C#N
> 80 µM (inactive)	Cc1cccc(NC(=O)c2nc[nH]c2C(=O)Nc2ccccc2[N+](=O)[O-])c1
> 80 µM (inactive)	C#CCn1c(=NC(=O)c2ccc(S(=O)(=O)N3CCc4ccccc4C3)cc2)sc2cc(S(N)(=O)=O)ccc21
> 80 µM (inactive)	CN(C)CCCN(C(=O)c1ccc(S(=O)(=O)N2CCCCCC2)cc1)c1nc2ccc(Br)cc2s1
24.2 µM (inactive)	CCOC(=O)c1sc(-c2ccccc2)cc1NC(=O)Nc1ccc([N+](=O)[O-])cc1
